Measured values published in paper PMC9299836 (eLife, 2022).
“And” between values parts separate entries of the source, which are not always exact repeats. Identical values can stand only once. Like-named read-outs stand apart in the source and are kept apart here.

Tests used:
mGluR2 [1] = biological target: mGluR2 (Mus musculus, UniProt Q14BI2, A548F); experiment: Live-cell FRET, azi-CRD (cysteine-rich domain) sensor in HEK293T cells; settings: for Normalized FRET response, Mean (azi-CRD agonist DRC): maximal responses normalized to 1mM glutamate
mGluR2 (Mus musculus, UniProt Q14BI2, A548F), sequence (Q14BI2 19-872 A548F): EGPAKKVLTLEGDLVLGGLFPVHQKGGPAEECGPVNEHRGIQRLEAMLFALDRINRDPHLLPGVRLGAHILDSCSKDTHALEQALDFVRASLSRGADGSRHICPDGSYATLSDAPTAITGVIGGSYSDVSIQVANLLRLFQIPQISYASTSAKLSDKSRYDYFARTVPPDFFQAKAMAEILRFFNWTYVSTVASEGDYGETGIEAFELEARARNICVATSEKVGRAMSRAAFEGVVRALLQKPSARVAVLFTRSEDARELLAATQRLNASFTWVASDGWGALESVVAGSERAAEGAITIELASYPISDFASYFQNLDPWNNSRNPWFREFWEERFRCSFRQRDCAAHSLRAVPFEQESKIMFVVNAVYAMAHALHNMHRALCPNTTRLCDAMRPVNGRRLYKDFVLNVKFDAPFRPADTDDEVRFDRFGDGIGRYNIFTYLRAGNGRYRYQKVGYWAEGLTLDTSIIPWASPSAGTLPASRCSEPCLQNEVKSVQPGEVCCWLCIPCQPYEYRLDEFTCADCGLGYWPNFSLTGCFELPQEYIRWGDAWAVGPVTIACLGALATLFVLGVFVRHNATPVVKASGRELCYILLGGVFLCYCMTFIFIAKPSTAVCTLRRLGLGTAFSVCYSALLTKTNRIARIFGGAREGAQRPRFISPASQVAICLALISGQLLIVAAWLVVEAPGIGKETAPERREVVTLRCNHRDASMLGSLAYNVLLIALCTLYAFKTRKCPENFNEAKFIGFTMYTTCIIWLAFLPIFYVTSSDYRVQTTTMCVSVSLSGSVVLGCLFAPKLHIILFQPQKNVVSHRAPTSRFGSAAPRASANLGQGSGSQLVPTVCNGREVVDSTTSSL

mGluR2 [2] = biological target: T1, mGluR2 (Mus musculus, UniProt Q14BI2); experiment: Live-cell FRET, SNAP-m2 (VFT domain) inter-subunit sensor in HEK293T cells; settings: for Normalized FRET response, Mean (SNAP-m2 agonist DRC): maximal responses normalized to 1mM glutamate;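 for all read-outs here: apparent FRET efficiency from whole-membrane ROIs of single cells, corrected for donor bleed-through and background, ΔFRET as treatment minus pretreatment signal, recorded at room temperature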
T1 sequence (Q14BI2 19-872): as the sequence (Q14BI2 19-872 A548F) above, with F530A counted along it

mGluR2 [3] = biological target: mGluR2 (Mus musculus, UniProt Q14BI2, INS715F); experiment: Live-cell FRET, azi-ECL2 (7TM domain, extracellular loop 2) sensor in HEK293T cells;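 note: Cy3/Cy5 click-labeled sensor, whole-membrane ROIs per cell, apparent FRET after bleed-through correction, ΔFRET as treatment minus pre-treatment signal, at room temperature, at least three biological replicates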
mGluR2 (Mus musculus, UniProt Q14BI2, INS715F), sequence (Q14BI2 with tags, fused parts or gaps INS715F): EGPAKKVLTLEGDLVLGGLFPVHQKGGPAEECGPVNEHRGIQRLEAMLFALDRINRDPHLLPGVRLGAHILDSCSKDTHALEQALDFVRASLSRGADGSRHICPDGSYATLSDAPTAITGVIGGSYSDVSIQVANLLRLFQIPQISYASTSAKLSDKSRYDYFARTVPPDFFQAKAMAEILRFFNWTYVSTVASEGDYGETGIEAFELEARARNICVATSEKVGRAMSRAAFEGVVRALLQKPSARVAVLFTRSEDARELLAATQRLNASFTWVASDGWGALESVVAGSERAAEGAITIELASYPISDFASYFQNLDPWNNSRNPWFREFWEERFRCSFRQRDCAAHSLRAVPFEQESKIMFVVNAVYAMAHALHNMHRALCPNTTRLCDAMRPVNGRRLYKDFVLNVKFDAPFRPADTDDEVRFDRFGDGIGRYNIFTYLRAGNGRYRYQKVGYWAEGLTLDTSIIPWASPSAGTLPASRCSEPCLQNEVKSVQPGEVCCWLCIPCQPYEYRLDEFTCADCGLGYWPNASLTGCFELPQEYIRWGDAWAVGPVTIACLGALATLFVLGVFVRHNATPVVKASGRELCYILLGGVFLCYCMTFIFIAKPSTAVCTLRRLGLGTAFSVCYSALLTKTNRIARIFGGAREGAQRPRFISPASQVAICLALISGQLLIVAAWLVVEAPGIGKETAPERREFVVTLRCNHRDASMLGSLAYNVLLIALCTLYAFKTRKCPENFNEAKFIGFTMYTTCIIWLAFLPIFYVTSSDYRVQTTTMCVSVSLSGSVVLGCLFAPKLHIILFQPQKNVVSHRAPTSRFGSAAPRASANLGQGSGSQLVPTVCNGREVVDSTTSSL

mGluR2 [4] = biological target: T1, mGluR2; experiment: Functional calcium imaging, SNAP-mGluR2 (no FLAG-tag) with chimeric G protein Gqo5 in HEK293T cells; format: cell-based; parameters: Full length mGluR2 construct with an amber codon (TAG) mutation of amino acid A548 (azi-CRD) or N-terminal SNAP-tag (SNAP-mGluR2); host or cells: HEK293T; settings: for Intracellular Ca2+ response, Mean / Intracellular Ca2+ response: normalized to 1mM glutamate; for Intracellular Ca2+ response: single experiments

N[C@H](C(=O)O)C1[C@@H](C(=O)O)[C@@H]1C(=O)O (some centres unmarked) [DCG-IV]
efficacy relative to glutamate efficacy (mGluR2 [1]; CRD sensor): 69% | Hill slope (mGluR2 [1]; azi-CRD sensor, orthosteric agonist alone): 0.94 | Live-cell FRET max response normalized to 1mM glutamate (mGluR2 [1]; azi-CRD sensor, DCG-IV, individual values (N=19)): 0.7559 and 0.727 and 0.7189 and 0.7035 and 0.632 and 0.6169 and 0.7378 and 0.6793 and 0.6073 and 0.6642 and 0.7117 and 0.7276 and 0.6566 and 0.7993 and 0.7099 and 0.6625 and 0.714 and 0.6368 and 0.7062 | Mean max response (normalized max ΔFRET) (mGluR2 [1]; azi-CRD, agonist alone (1 mM glutamate, 100 μM DCG-IV, 20 μM LY379268, 100 μM APDC), normalized to 1 mM glutamate): 0.69 | Normalized Max ΔFRET (mGluR2 [1]; azi-CRD, 100μM agonist, individual cells, normalized to 1mM glutamate): 66.2522 and 61.6858 and 73.7778 and 67.9245 and 60.7306 and 66.4234 and 71.1688 and 72.7619 and 65.6646 and 79.932 and 70.9877 and 71.4032 and 63.6793 and 70.615 and 75.5857 and 72.6994 and 71.8894 and 70.347 and 63.2035 | Normalized Max ΔFRET, Mean (mGluR2 [1]; azi-CRD, 100μM agonist, mean of cells, normalized to 1mM glutamate): 69.3017 | Normalized FRET response, Mean (azi-CRD agonist DRC) (mGluR2 [1]; log[ligand] (M) -4): 0.693 | Normalized FRET response, Mean (azi-CRD agonist DRC) (mGluR2 [1]; log[ligand] (M) -4.1549): 0.638 | Normalized FRET response, Mean (azi-CRD agonist DRC) (mGluR2 [1]; log[ligand] (M) -4.52288): 0.594 | Normalized FRET response, Mean (azi-CRD agonist DRC) (mGluR2 [1]; log[ligand] (M) -5): 0.6438 | Normalized FRET response, Mean (azi-CRD agonist DRC) (mGluR2 [1]; log[ligand] (M) -5.39794): 0.5492 | Normalized FRET response, Mean (azi-CRD agonist DRC) (mGluR2 [1]; log[ligand] (M) -5.82391): 0.4312 | Normalized FRET response, Mean (azi-CRD agonist DRC) (mGluR2 [1]; log[ligand] (M) -6): 0.3274 | Normalized FRET response, Mean (azi-CRD agonist DRC) (mGluR2 [1]; log[ligand] (M) -6.52288): 0.164 | Normalized FRET response, Mean (azi-CRD agonist DRC) (mGluR2 [1]; log[ligand] (M) -7): 0.06087 | Normalized FRET response, Mean (azi-CRD agonist DRC) (mGluR2 [1]; log[ligand] (M) -8): 0 | EC50 (mGluR2 [1]; read-out: Live-cell FRET titration EC50, azi-CRD, agonist alone, individual experiments): 1530 nM and 1470 nM and 783 nM and 580 nM and 528 nM and 523 nM and 890 nM and 1360 nM and 1600 nM and 2080 nM | EC50 (mGluR2 [1]; read-out: Mean half-maximum effective concentration (EC50), azi-CRD sensor, orthosteric agonist alone): 1100 nM | Mean max response (normalized max ΔFRET) (mGluR2 [2]; SNAP-m2 (VFT), agonist alone (1 mM glutamate, 100 μM DCG-IV, 20 μM LY379268, 100 μM APDC), normalized to 1 mM glutamate): 0.79 | Normalized Max ΔFRET (mGluR2 [2]; SNAP-m2, 100μM agonist, individual cells, normalized to 1mM glutamate): 84.7663 and 70.8926 and 74.3888 and 73.8095 and 75.8105 and 75.3951 and 75.9881 and 74.211 and 74.4971 and 73.9262 and 75.3591 and 85.075 and 75.8448 and 76.6206 and 81.7136 and 78.0427 and 77.2768 and 74.1653 and 84.8254 and 80.7786 and 86.2145 and 83.3004 and 84.7137 and 86.1165 and 84.7264 | Normalized Max ΔFRET, Mean (mGluR2 [2]; SNAP-m2, 100μM agonist, mean of cells, normalized to 1mM glutamate): 78.7384 | Hill slope (mGluR2 [2]; SNAP-m2 sensor, orthosteric agonist alone): –1.26 | Live-cell FRET max response normalized to 1mM glutamate (mGluR2 [2]; SNAP-m2 sensor, DCG-IV, individual values (N=25)): 0.8621 and 0.833 and 0.8471 and 0.8612 and 0.8473 and 0.7089 and 0.7439 and 0.7381 and 0.7581 and 0.754 and 0.7599 and 0.7421 and 0.745 and 0.7393 and 0.7536 and 0.7584 and 0.7662 and 0.8171 and 0.7804 and 0.7728 and 0.7417 and 0.8477 and 0.8508 and 0.8482 and 0.8078 | efficacy relative to glutamate efficacy (mGluR2 [2]; VFT domain FRET sensor): 79% | Normalized FRET response, Mean (SNAP-m2 agonist DRC) (mGluR2 [2]; log[ligand] (M) -4): -0.7874 | Normalized FRET response, Mean (SNAP-m2 agonist DRC) (mGluR2 [2]; log[ligand] (M) -4.52288): -0.8342 | Normalized FRET response, Mean (SNAP-m2 agonist DRC) (mGluR2 [2]; log[ligand] (M) -5): -0.8388 | Normalized FRET response, Mean (SNAP-m2 agonist DRC) (mGluR2 [2]; log[ligand] (M) -5.39794): -0.8023 | Normalized FRET response, Mean (SNAP-m2 agonist DRC) (mGluR2 [2]; log[ligand] (M) -5.82391): -0.7016 | Normalized FRET response, Mean (SNAP-m2 agonist DRC) (mGluR2 [2]; log[ligand] (M) -6.09691): -0.5309 | Normalized FRET response, Mean (SNAP-m2 agonist DRC) (mGluR2 [2]; log[ligand] (M) -6.52288): -0.3457 | Normalized FRET response, Mean (SNAP-m2 agonist DRC) (mGluR2 [2]; log[ligand] (M) -7): -0.1181 | Normalized FRET response, Mean (SNAP-m2 agonist DRC) (mGluR2 [2]; log[ligand] (M) -7.30103): -0.04846 | Normalized FRET response, Mean (SNAP-m2 agonist DRC) (mGluR2 [2]; log[ligand] (M) -7.69897): 0 | EC50 (mGluR2 [2]; read-out: Live-cell FRET titration EC50, SNAP-m2, agonist alone, individual experiments): 601 nM and 624 nM and 283 nM and 314 nM and 294 nM and 323 nM | EC50 (mGluR2 [2]; read-out: Mean half-maximum effective concentration (EC50), SNAP-m2 sensor, orthosteric agonist alone): 400 nM | efficacy relative to glutamate efficacy (mGluR2 [3]; ECL2 sensor): 64% | Mean max response (normalized max ΔFRET) (mGluR2 [3]; azi-ECL2, agonist alone (1 mM glutamate, 100 μM DCG-IV, 20 μM LY379268, 100 μM APDC), normalized to 1 mM glutamate): 0.64 | Normalized ΔFRET response, Mean (agonist DRC) (mGluR2 [3]; azi-ECL2, log[agonist] (M) -4, normalized to 1 mM glutamate): 0.6388 | Normalized ΔFRET response, Mean (agonist DRC) (mGluR2 [3]; azi-ECL2, log[agonist] (M) -4.52288, normalized to 1 mM glutamate): 0.6117 | Normalized ΔFRET response, Mean (agonist DRC) (mGluR2 [3]; azi-ECL2, log[agonist] (M) -5, normalized to 1 mM glutamate): 0.5883 | Normalized ΔFRET response, Mean (agonist DRC) (mGluR2 [3]; azi-ECL2, log[agonist] (M) -5.39794, normalized to 1 mM glutamate): 0.5288 | Normalized ΔFRET response, Mean (agonist DRC) (mGluR2 [3]; azi-ECL2, log[agonist] (M) -5.82391, normalized to 1 mM glutamate): 0.4325 | Normalized ΔFRET response, Mean (agonist DRC) (mGluR2 [3]; azi-ECL2, log[agonist] (M) -6.09691, normalized to 1 mM glutamate): 0.3472 | Normalized ΔFRET response, Mean (agonist DRC) (mGluR2 [3]; azi-ECL2, log[agonist] (M) -6.52288, normalized to 1 mM glutamate): 0.1978 | Normalized ΔFRET response, Mean (agonist DRC) (mGluR2 [3]; azi-ECL2, log[agonist] (M) -7, normalized to 1 mM glutamate): 0.04555 | Normalized ΔFRET response, Mean (agonist DRC) (mGluR2 [3]; azi-ECL2, log[agonist] (M) -7.30103, normalized to 1 mM glutamate): 0.01237 | Normalized ΔFRET response, Mean (agonist DRC) (mGluR2 [3]; azi-ECL2, log[agonist] (M) -7.69897, normalized to 1 mM glutamate): 0 | Normalized Max ΔFRET (mGluR2 [3]; azi-ECL2, 100μM agonist, individual cells, normalized to 1mM glutamate): 75.6239 and 62.1009 and 89.9691 and 84.6273 and 55.3373 and 55.3387 and 55.3355 and 62.696 and 49.3687 and 57.2855 and 56.6756 and 63.6013 and 56.6982 and 53.3737 and 53.7969 and 61.9848 and 59.9837 and 58.1516 and 63.6225 and 66.6797 and 61.402 and 83.697 and 67.4032 and 68.3214 and 74.0066 | Normalized Max ΔFRET, Mean (mGluR2 [3]; azi-ECL2, 100μM agonist, mean of cells, normalized to 1mM glutamate): 63.8832 | Hill slope (mGluR2 [3]; azi-ECL2 sensor, orthosteric agonist alone): 1.05 | Live-cell FRET max response normalized to 1mM glutamate (mGluR2 [3]; azi-ECL2 sensor, DCG-IV, individual values (N=25)): 0.614 and 0.837 and 0.674 and 0.6832 and 0.7401 and 0.621 and 0.8997 and 0.8463 and 0.5534 (3×) and 0.627 and 0.4937 and 0.5728 and 0.5668 and 0.567 and 0.5337 and 0.538 and 0.6199 and 0.5998 and 0.5815 and 0.7562 and 0.636 and 0.6362 and 0.6668 | EC50 (mGluR2 [3]; read-out: EC50, live-cell FRET titration, azi-ECL2 sensor, DCG-IV, individual cell values (N=24)): 407 nM and 1580 nM and 2080 nM and 2050 nM and 1660 nM and 1520 nM and 1840 nM and 2020 nM and 1160 nM and 2070 nM and 563 nM and 325 nM and 399 nM and 405 nM and 280 nM and 445 nM and 366 nM and 629 nM and 300 nM and 459 nM and 417 nM and 327 nM and 390 nM and 398 nM | EC50 (mGluR2 [3]; read-out: Mean half-maximum effective concentration (EC50), azi-ECL2 sensor, orthosteric agonist alone): 900 nM | Normalized Max Intracellular Ca2+ Response, individual experiments (mGluR2 [4]; 100 μM DCG-IV, 10 μM LY379268, 300 μM APDC, normalized to 1 mM glutamate, single replicate): 0.684 and 0.6918 and 0.7087 | Normalized Max Intracellular Ca2+ Response, mean (mGluR2 [4]; 1 mM Glu, 100 μM DCG-IV, 10 μM LY379268, 300 μM APDC, normalized to 1 mM glutamate): 0.6948 | efficacy relative to glutamate efficacy (mGluR2 [4]; functional calcium imaging assay): 69% | Intracellular Ca2+ response, Mean (mGluR2 [4]; log[agonist] (M) -4): 0.6948 | Intracellular Ca2+ response (mGluR2 [4]; log[agonist] (M) -4): 0.6948 | Intracellular Ca2+ response, Mean (mGluR2 [4]; log[agonist] (M) -4.52288): 0.7042 | Intracellular Ca2+ response (mGluR2 [4]; log[agonist] (M) -4.52288): 0.7332 and 0.6724 and 0.7069 | Intracellular Ca2+ response, Mean (mGluR2 [4]; log[agonist] (M) -5): 0.632 | Intracellular Ca2+ response (mGluR2 [4]; log[agonist] (M) -5): 0.631 and 0.6318 and 0.6332 | Intracellular Ca2+ response, Mean (mGluR2 [4]; log[agonist] (M) -5.39794): 0.5754 | Intracellular Ca2+ response (mGluR2 [4]; log[agonist] (M) -5.39794): 0.5417 and 0.5882 and 0.5962 | Intracellular Ca2+ response, Mean (mGluR2 [4]; log[agonist] (M) -5.82391): 0.3655 | Intracellular Ca2+ response (mGluR2 [4]; log[agonist] (M) -5.82391): 0.2777 and 0.362 and 0.4567 | Intracellular Ca2+ response, Mean (mGluR2 [4]; log[agonist] (M) -6): 0.3093 | Intracellular Ca2+ response (mGluR2 [4]; log[agonist] (M) -6): 0.2196 and 0.3072 and 0.4011 | Intracellular Ca2+ response, Mean (mGluR2 [4]; log[agonist] (M) -6.52288): 0.06286 | Intracellular Ca2+ response, Mean (mGluR2 [4]; log[agonist] (M) -7): 0 | Intracellular Ca2+ response (mGluR2 [4]; log[agonist] (M) -7): 0 | Intracellular Ca2+ response, Mean (mGluR2 [4]; log[agonist] (M) -8): 0 | Intracellular Ca2+ response (mGluR2 [4]; log[agonist] (M) -8): 0
